Paper PMC4841536, “Characterization of the Anti-HCV Activities of the New Cyclophilin Inhibitor STG-175” (PLoS ONE, 2016)
pEC50: −log10 of the molar value. Values joined by “and” are separate entries in the source; they are usually repeats but may differ in a detail not shown here. Equal entries are not always repeated. Where two headings read alike, the source gives them in different places.

Assays:
[1] = test system: D320E/Y321N NS5A Con1 GT1b replicon; experiment: microbe, parasite or virus in culture; assay type: cell-based, hepatitis C virus; conditions: for pEC50: Hepatitis C virus, GT1B
Description: (§1) The GT1b subgenomic firefly luciferase reporter replicon pFK-I389/NS3–3 was provided by R. Bartenschlager. The GT1B subgenomic NS3, NS5A and NS5B mutants were created via homologous recombination using the In-Fusion HD Cloning kit (Clontech) as we described previously. […] The in vitro transcription of wild-type and mutant Con1 RNA was accomplished using the T7 MEGAscript kit (Ambion) by following the manufacturer’s instructions. In vitro-transcribed RNAs were introduced into Huh7.5.1 cells by electroporation. Trypsinized cells were washed twice and resuspended in phosphate-buffered saline (PBS) (calcium-free and magnesium-free) at 1x 10^7 cells per ml. Ten micrograms of RNA for each mutant was mixed with 0.4 mL of cells in a 4-mm cuvette, and a Bio-Rad Gene Pulser system was used to deliver a single pulse at 0.27 kV, 100 ohms, and 960 μF. Cells were then plated in 12-well dishes. RNA transfection efficiency and HCV subgenomic replication were assessed by reverse transcription-quantitative PCR (RT-qPCR) and presented as genome equivalents (GE) per microgram of total RNA as described previously. We measured by RT-qPCR the replication of wild-type, STG-175-, NS5Ai-, NS3i- and NS5Bi-resistant mutants in the presence of increasing concentrations of SGT-175, daclatasvir, telaprevir, boceprevir and sofosbuvir over a period of 8 days.
(§2) D320E and D320E/Y321N NS5A substitutions were introduced into wild-type Con1 GT1 replicon as we described previously. Con1-NS5A-D320E, and Con1-NS5A-D320E/Y321N were generated using the following forward and reverse phosphorylated (p) primer sets, respectively: (p)[…] and (p)[…], and (p)[…] and (p)[…]. PCR products were circularized with Quick T4 DNA ligase (NEB) for 5 min and transformed into NEB 10-beta competent cells. The NS5A gene was sequenced to confirm the introduced substitutions.
(§3) Fig 3 Replicon clearance, replication rebound and resistance analyses. […] Then drugs were removed to allow viral replication rebound to occur. At each passage, samples of cells were collected, RNA extracted and analyzed by RT-PCR for HCV RNA levels. B. Emergence of resistance: Con1 replicon Huh-7 cells were passaged 22 times in the absence or presence of STG-175 or selected DAAs. At each passage, sample of cells were collected, RNA extracted and analyzed by RT-PCR for HCV RNA levels. C. […] Data are expressed as number of HCV RNA copies per cell. […] Data are expressed as mean of relative light units and calculated EC50s are presented. […] E. Degree of resistance of D320E and Y321N Con1 variants: Left panel. Wild-type (WT), D320E and D320/Y321N NS5A Con1 RNA were electroporated into Huh7.5.1 cells and replication monitored over 8 days by quantifying the levels of intracellular HCV RNA. Right panel. Same as just above except that increasing concentrations of STG-175 were added at the time of the electroporation. […] STG-175 is taken as the substance from the printed x-axis title 'STG-175 in Log nM'.
(§4) To determine whether the D320E and Y321N substitutions truly render HCV resistant to STG-175, they were introduced into wild-type Con1 replicon as we described previously. Introduction of the substitutions was verified by sequencing.

[2] = test system: D320E NS5A Con1 GT1b replicon; experiment: microbe, parasite or virus in culture; assay type: cell-based, hepatitis C virus; conditions: for pEC50: Hepatitis C virus, GT1B
Description: as §1, §2, §3, §4

[3] = test system: NS5Bi-resistant S282T NS5B Con1 GT1b replicon; experiment: Electroporated Con1 RNA replication in Huh7.5.1 cells (RT-qPCR), S282T NS5B; assay type: cell-based; conditions: Hepatitis C virus, Huh-7.5.1, 192 h, read-out: EC50 S282T NS5B
Description: as §1, with “Cells were then plated in 12-well dishes.” left out
Fig 5 Cross-resistance analyses. […] Data are expressed as log of GE/μg of total RNA. […]

Question: How did the pEC50 ([1]; Huh-7.5.1, 144 h, read-out: EC50, D320E/Y321N replicon) turn out when `CC=CCC(C)C(O)C1C(=O)NC(CC)C(=O)N(C)C(CSCCCCO)C(=O)N(C)C(CC(C)(C)O)C(=O)NC(C(C)C)C(=O)N(C)C(CC(C)C)C(=O)NC(C)C(=O)NC(C)C(=O)N(C)C(CC(C)C)C(=O)N(C)C(CC(C)C)C(=O)N(C)C(C(C)C)C(=O)N1C` (stereo not drawn) [STG-175] was run?
Answer: The pEC50 was 7.12.

Question: And the pEC50 ([1]; Huh-7.5.1, 192 h, read-out: EC50, D320E/Y321N replicon)?
Answer: Its pEC50 is 6.99.

Question: What about the pEC50 ([1]; Huh-7.5.1, 192 h, read-out: EC50 D320E/Y321N NS5A) of the same compound?
Answer: Its pEC50 is 7.11.

Question: What about the “fold more resistant than wild-type replicon, D320E/Y321N” value ([1]; day 6) of the same compound?
Answer: The value was 2.1 fold.

Question: What about the “fold more resistant than wild-type replicon, D320E/Y321N” value ([1]; day 8) of the same compound?
Answer: The value was 2.9 fold.

Question: And the “fold resistance conferred by NS5A D320E and Y321N substitutions (summary)” value ([1]; variants emerged under STG-175 pressure)?
Answer: The value was ~ 2 fold and 2-3 fold.

Question: What about the pEC50 ([2]; Huh-7.5.1, 144 h, read-out: EC50, D320E replicon) of the same compound?
Answer: The pEC50 was 7.21.

Question: And the pEC50 ([2]; Huh-7.5.1, 192 h, read-out: EC50, D320E replicon)?
Answer: The pEC50 was 7.08.

Question: And the pEC50 ([2]; Huh-7.5.1, 192 h, read-out: EC50 D320E NS5A)?
Answer: The pEC50 was 7.20.

Question: What about the “fold more resistant than wild-type replicon, D320E” value ([2]; day 6) of the same compound?
Answer: Its value is 1.7 fold.

Question: And the “fold more resistant than wild-type replicon, D320E” value ([2]; day 8)?
Answer: Its value is 2.4 fold.

Question: And the pEC50 [3]?
Answer: Its pEC50 is 8.27.
